Experiments:
Test in all cases: Cell growth inhibitory effect, cell counting kit 8, 6 days
Assay type in all cases: cell-based
[1] = tested on: HuH28, a human liver cancer cell line; details: 144 h, HuH28 cells, 6 days incubation
Text: (§1) Cell growth inhibitory effect on human mesothelioma, human liver cancer, human ovarian cancer, and […]
(§2) NCI-H226 cells, a human mesothelioma cell line (ATCC, CRL-5826), NCI-H322 cells, a human lung cancer cell line (the European Collection of Authenticated Cell Cultures, 95111734), OVTOKO cells, a human ovarian cancer cell line (JCRB cell bank, JCRB1048) and HuH28, a human liver cancer cell line (JCRB cell bank, JCRB0426) were each subcultured by keeping the cell density under 80% in a RPMI1640 culture medium with 10% fetal bovine serum (FBS). NCI-H226 cells, NCI-H322 cells and SSP-25 cells were each suspended in the RPM11640 culture medium mentioned above, and plated to a 96-well flat-bottom plate at 500 cells/well in each well, and incubated at 37° C. in an incubator with 5% CO2 for one day. After the incubation, the evaluation of cell growth inhibitory activity was started. OVTOKO cells were suspended in the RPMI1640 culture medium mentioned above, and plated to a 96-well flat-bottom plate at 250 cells/well in each well, and incubated it at 37° C. in an incubator with 5% CO2 for one day. After the incubation, the evaluation of the cell growth inhibitory activity was started. The next day, a test compound was serially diluted to 5 times of its final concentration in the RPM11640 culture medium mentioned above, and the diluted solution was added to each well. In this case, the final concentration of DMSO in each well was adjusted to 0.1%. After the test compound was added, cells were incubated at 37° C. in an incubator with 5% CO2 for 6 days. At the addition of the test compound and 6 days after the addition, the cell counting measurement was performed using a cell counting kit 8 (made by DOJINDO) according to a protocol equivalent to DOJINDO's recommendation. A reagent contained in the kit was added to each plate and color reaction was performed for 2 or 3 hours at 37° C. in an incubator with 5% CO2. After the reaction, an absorbance at wavelength of 450 nm was measured using a microplate reader. A growth inhibition rate was calculated according to the following formula, from which the concentration of a test compound at which cell growth was inhibited by 50% (GI50 value) was determined.

[2] = tested on: NCI-H322 cells, a human lung cancer cell line; details: 144 h, 6 days incubation
Text: as §1, §2

[3] = tested on: NCI-H226 cells, a human mesothelioma cell line; details: 144 h, 6 days incubation
Text: as §1, §2

[4] = group 100 nmol/L to 1 μmol/L (upper bound given in μmol/L)

Row | SMILES | GI50 [1] | GI50 [2] | GI50 ([3]; group less than 100 nmol/L) | GI50 [3, 4]
1 | C=CC(=O)Nc1cncc(Oc2ccnc(C(F)(F)F)c2)c1 [Compound 108, N-(5-[{2-(Trifluoromethyl)pyridin-4-yl}oxy]pyridin-3-yl)acrylamide] | < 3000 nM | < 1000 nM | < 100 nM | –
2 | C=CC(=O)Nc1ccc(Oc2ccccc2)c2ncccc12 [Compound 111, N-(8-Phenoxyquinolin-5-yl)acrylamide] | < 3000 nM | < 1000 nM | < 100 nM | –
3 | C=CC(=O)Nc1ccc(Oc2ccccc2)c2nc(C)ccc12 [Compound 112, N-(2-Methyl-8-phenoxyquinolin-5-yl)acrylamide] | < 3000 nM | < 1000 nM | < 100 nM | –
4 | C=CC(=O)Nc1ccc(Oc2cccc(Cl)c2)c2ncccc12 [Compound 114, N-{8-(3-Chlorophenoxy)quinolin-5-yl}acrylamide] | < 3000 nM | < 1000 nM | < 100 nM | –
5 | C=CC(=O)Nc1ccc(Oc2ccc(Cl)cc2)c2nc(C)ccc12 [Compound 117, N-{8-(4-Chlorophenoxy)-2-methylquinolin-5-yl}acrylamide] | < 3000 nM | < 1000 nM | < 100 nM | –
6 | C=CC(=O)Nc1ccc(OCC2CCC(F)(F)CC2)c2ncccc12 [Compound 126, N-[8-{(4,4-Difluorocyclohexyl)methoxy}quinolin-5-yl]acrylamide] | < 3000 nM | < 1000 nM | < 100 nM | –
7 | C=CC(=O)NCc1ccc(Oc2ccc(Cl)cc2)c2ncccc12 [Compound 134, N-[{8-(4-Chlorophenoxy)quinolin-5-yl}methyl]acrylamide] | < 3000 nM | < 1000 nM | < 100 nM | –
8 | C=CC(=O)NCc1ccc(Oc2cccc(C(F)(F)F)c2)c2ncccc12 [Compound 137, N-([8-{3-(Trifluoromethyl)phenoxy}quinolin-5-yl]methyl)acrylamide] | < 3000 nM | < 1000 nM | < 100 nM | –
9 | C=CC(=O)NCc1ccc(Oc2ccc(C(F)(F)F)cc2)c2ncccc12 [Compound 138, N-([8-{4-(Trifluoromethyl)phenoxy}quinolin-5-yl]methyl)acrylamide] | < 3000 nM | < 1000 nM | < 100 nM | –
10 | C=CC(=O)NCc1ccc(Oc2ccc(C(F)(F)F)cc2)c2nc(Cl)ccc12 [Compound 139, N-([2-Chloro-8-{4-(trifluoromethyl)phenoxy}quinolin-5-yl]methyl)acrylamide] | < 3000 nM | < 1000 nM | < 100 nM | –
11 | C=CC(=O)NC1COc2c(cccc2Oc2cnc(C(F)(F)F)cn2)C1 (stereo not drawn) [Compound 157, N-(8-[{5-(Trifluoromethyl)pyrazin-2-yl}oxy]chroman-3-yl)acrylamide] | – | < 1000 nM | < 100 nM | –
12 | C=CC(=O)NC1COc2c(cc(C(F)(F)F)cc2Oc2ccc(C(F)(F)F)nc2)C1 (stereo not drawn) [Compound 162, N-{6-(Trifluoromethyl)-8-[{6-(trifluoromethyl)pyridin-3-yl}oxy]chroman-3-yl}acrylamide] | – | < 1000 nM | – | 100 to 1000 nM
13 | C=CC(=O)NCc1ccc(Oc2ccc(C(F)(F)F)cc2)c2cccnc12 [Compound 216, N-([5-{4-(Trifluoromethyl)phenoxy}quinolin-8-yl]methyl)acrylamide] | – | < 1000 nM | < 100 nM | –
14 | C=CC(=O)NCc1ccc(Oc2ccc(C(F)(F)F)nc2)c2cccnc12 [Compound 219, N-{(5-[{6-(Trifluoromethyl)pyridin-3-yl}oxy]quinolin-8-yl)methyl}acrylamide] | – | < 1000 nM | < 100 nM | –
15 | C=CC(=O)NCc1cc(Oc2ccc(C(F)(F)F)cc2)cc2ncccc12 [Compound 220, N-([7-{4-(Trifluoromethyl)phenoxy}quinolin-5-yl]methyl)acrylamide] | – | < 1000 nM | – | 100 to 1000 nM
16 | C=CC(=O)NC1COc2c(cccc2Oc2ccc(C(F)(F)F)nc2)C1 (stereo not drawn) [Compound 229, N-(8-[{6-(Trifluoromethyl)pyridin-3-yl}oxy]chroman-3-yl)acrylamide] | – | < 1000 nM | < 100 nM | –

Source: patent US11332455B2, “α,β-unsaturated amide compound” (KYOWA KIRIN CO., LTD., priority 2015, dated 2022)
